Test results reported in PubChem BioAssay AID330 (DTP/NCI, 2004).
Values joined by “and” are separate entries in the source; they are usually repeats but may differ in a detail not shown here. Equal values may be shown once. Toxic doses and inconclusive results are not listed. The calls were made as follows: active = survival T/C of 150% or more; inactive = T/C below 125% in these data.

Test system: P388 leukemia ip, CD2F1 mice, survival T/C
Assay: NCI In Vivo Anticancer Drug Screen. Data for tumor model P388 Leukemia (intraperitoneal) in CD2F1 (CDF1) mice
Conditions: endpoint: median survival time, higher = longer survival
Summary of the method: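 Mice carrying the transplanted tumor received test compound or vehicle. Survival was recorded in each group, and the value is the treated-group measurement divided by that of the vehicle-treated control group.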

[1] = dose: 50.0 mg/kg/injection, schedule: Q01DX009 (ip), vehicle: Klucel (hydroxypropylcellulose) (HPC)
[2] = dose: 100.0 mg/kg/injection, schedule: Q01DX009 (ip), vehicle: Klucel (hydroxypropylcellulose) (HPC)
[3] = dose: 200.0 mg/kg/injection, schedule: Q01DX009 (ip), vehicle: Klucel (hydroxypropylcellulose) (HPC)
[4] = dose: 12.5 mg/kg/injection, schedule: Q01DX005 (ip), vehicle: Klucel (hydroxypropylcellulose) (HPC)
[5] = dose: 25.0 mg/kg/injection, schedule: Q01DX005 (ip), vehicle: Klucel (hydroxypropylcellulose) (HPC)
[6] = dose: 50.0 mg/kg/injection, schedule: Q01DX005 (ip), vehicle: Klucel (hydroxypropylcellulose) (HPC)
[7] = dose: 100.0 mg/kg/injection, schedule: Q01DX009 (ip), vehicle: saline with Tween-80
[8] = dose: 200.0 mg/kg/injection, schedule: Q01DX009 (ip), vehicle: saline with Tween-80
[9] = dose: 50.0 mg/kg/injection, schedule: Q01DX005 (ip), vehicle: saline with Tween-80
[10] = dose: 100.0 mg/kg/injection, schedule: Q01DX005 (ip), vehicle: saline with Tween-80
[11] = dose: 200.0 mg/kg/injection, schedule: Q01DX005 (ip), vehicle: saline with Tween-80
[12] = dose: 25.0 mg/kg/injection, schedule: Q01DX005 (ip), vehicle: saline with Tween-80
[13] = dose: 50.0 mg/kg/injection, schedule: Q01DX005 (ip), vehicle: saline
[14] = dose: 100.0 mg/kg/injection, schedule: Q01DX005 (ip), vehicle: saline
[15] = dose: 60.0 mg/kg/injection, schedule: Q01DX005 (ip), vehicle: saline with Tween-80
[16] = dose: 120.0 mg/kg/injection, schedule: Q01DX005 (ip), vehicle: saline with Tween-80
[17] = dose: 240.0 mg/kg/injection, schedule: Q01DX005 (ip), vehicle: saline with Tween-80
[18] = dose: 100.0 mg/kg/injection, schedule: Q01DX005 (ip), vehicle: Klucel (hydroxypropylcellulose) (HPC)
[19] = dose: 200.0 mg/kg/injection, schedule: Q01DX005 (ip), vehicle: Klucel (hydroxypropylcellulose) (HPC)
[20] = dose: 60.0 mg/kg/injection, schedule: Q01DX005 (ip), vehicle: Klucel (hydroxypropylcellulose) (HPC)
[21] = dose: 120.0 mg/kg/injection, schedule: Q01DX005 (ip), vehicle: Klucel (hydroxypropylcellulose) (HPC)
[22] = dose: 240.0 mg/kg/injection, schedule: Q01DX005 (ip), vehicle: Klucel (hydroxypropylcellulose) (HPC)

Measured: T/C

O=c1oc2ccccc2cc1-c1ccc(Br)c2ccccc12
inactive: [1] 93 % of control | [2] 100 % of control | [3] 95 % of control

C=C[P+](c1ccccc1)(c1ccccc1)c1ccccc1
inactive: dose: 0.37 mg/kg/injection, schedule: Q01DX009 (ip), vehicle: saline 104 % of control | dose: 0.75 mg/kg/injection, schedule: Q01DX009 (ip), vehicle: saline 105 % of control | dose: 1.5 mg/kg/injection, schedule: Q01DX009 (ip), vehicle: saline 116 % of control

[CH3][Sn]([CH3])([S]c1nc(O)cc(=O)[nH]1)[S]c1nc(O)cc(=O)[nH]1
inactive: [4] 105 % of control and 108 % of control | [5] 96 % of control | [6] 117 % of control and 88 % of control and 89 % of control

OCCN1CCSC1=S
inactive: dose: 50.0 mg/kg/injection, schedule: Q01DX009 (ip), vehicle: saline with Tween-80 95 % of control | [7] 90 % of control | [8] 100 % of control

COC(=O)NC(=O)CNc1ncc([N+](=O)[O-])s1
inactive: dose: 100.0 mg/kg/injection, schedule: Q01DX001 (ip), vehicle: saline 107 % of control | dose: 200.0 mg/kg/injection, schedule: Q01DX001 (ip), vehicle: saline 107 % of control | dose: 400.0 mg/kg/injection, schedule: Q01DX001 (ip), vehicle: saline 88 % of control

Nc1ccccc1SC1CC(=O)N(c2ccc(Cl)cc2)C1=O (stereo not drawn)
inactive: [7] 105 % of control | [8] 110 % of control | dose: 400.0 mg/kg/injection, schedule: Q01DX009 (ip), vehicle: saline with Tween-80 100 % of control

CC(C)NC(=O)OCc1cc(-c2ccccc2)n(C)c1-c1ccccc1
inactive: dose: 6.25 mg/kg/injection, schedule: Q01DX009 (ip), vehicle: distilled water + Tween-80 104 % of control and 98 % of control | dose: 12.5 mg/kg/injection, schedule: Q01DX009 (ip), vehicle: distilled water + Tween-80 107 % of control and 110 % of control and 113 % of control | dose: 25.0 mg/kg/injection, schedule: Q01DX009 (ip), vehicle: distilled water + Tween-80 117 % of control and 120 % of control and 122 % of control | dose: 50.0 mg/kg/injection, schedule: Q01DX009 (ip), vehicle: distilled water + Tween-80 105 % of control and 114 % of control and 116 % of control | dose: 100.0 mg/kg/injection, schedule: Q01DX009 (ip), vehicle: distilled water + Tween-80 92 % of control

Cc1c(C)c(C)c(S(=O)(=O)OCCCl)c(C)c1C
inactive: [9] 98 % of control | [10] 92 % of control | [11] 95 % of control

[N-]=[N+]=CC(=O)C1OC1c1ccc(Br)cc1 (stereo not drawn)
inactive: [12] 98 % of control | [9] 93 % of control | [10] 91 % of control | [11] 95 % of control

CC1(C)OCC(C2OC3OC(C)(C)OC3C2N=O)O1 (stereo not drawn)
inactive: dose: 94.5 mg/kg/injection, schedule: Q04DX002 (ip), vehicle: Klucel (hydroxypropylcellulose) (HPC) 103 % of control | dose: 189.0 mg/kg/injection, schedule: Q04DX002 (ip), vehicle: Klucel (hydroxypropylcellulose) (HPC) 96 % of control | dose: 378.0 mg/kg/injection, schedule: Q04DX002 (ip), vehicle: Klucel (hydroxypropylcellulose) (HPC) 90 % of control

O=C1COc2ccccc2C(=O)C1
inactive: dose: 50.0 mg/kg/injection, schedule: Q01DX009 (ip), vehicle: saline 109 % of control | dose: 100.0 mg/kg/injection, schedule: Q01DX009 (ip), vehicle: saline 101 % of control | dose: 200.0 mg/kg/injection, schedule: Q01DX009 (ip), vehicle: saline 101 % of control

Cc1cc(C)[n+]2n1C(=O)C(c1ccccc1)=C2[O-]
inactive: dose: 50.0 mg/kg/injection, schedule: Q01DX005 (ip), vehicle: Klucel + Tween-80 101 % of control | dose: 100.0 mg/kg/injection, schedule: Q01DX005 (ip), vehicle: Klucel + Tween-80 102 % of control | dose: 200.0 mg/kg/injection, schedule: Q01DX005 (ip), vehicle: Klucel + Tween-80 101 % of control

CC1CNCC(C)N1Cc1ccccc1 (stereo not drawn)
inactive: [13] 108 % of control | [14] 99 % of control

CN1C(=O)c2ccccc2CC12c1ccccc1C(=O)N2C (stereo not drawn)
inactive: dose: 12.5 mg/kg/injection, schedule: Q01DX005 (ip), vehicle: saline with Tween-80 94 % of control | [12] 90 % of control | [9] 108 % of control

Cc1c(C)[n+](=O)c2ccc(/C=[N+](/[O-])CCO)cc2n1[O-]
inactive: [1] 99 % of control | [2] 99 % of control | [3] 107 % of control

CN(C)C(=S)C(C)(C)C
inactive: [9] 111 % of control | [10] 103 % of control | [11] 106 % of control

Cn1ccnc1CC(C)(O)c1ccccc1 (stereo not drawn)
inactive: [15] 103 % of control | [16] 104 % of control | [17] 108 % of control

C(=C\c1ccc2c(c1)OCO2)/c1ccncc1
inactive: [5] 102 % of control | [6] 94 % of control and 102 % of control | [18] 95 % of control and 101 % of control | [19] 100 % of control and 90 % of control

Cc1nc2cc3ccccc3cc2nc1C
inactive: [6] 100 % of control | [18] 99 % of control | [19] 100 % of control

COc1ccc(S(=O)(=O)N/N=C/c2cc([N+](=O)[O-])cc(I)c2O)cc1
inactive: [9] 101 % of control | [10] 100 % of control | [11] 117 % of control

CC(=O)OC1CC(C(=O)c2ccccc2)N2N=CN(c3ccccc3)C12 (stereo not drawn)
inactive: [20] 103 % of control | [21] 102 % of control | [22] 104 % of control

COc1ccc(-c2ccc(Cc3ccc(-c4ccc(OC)cc4)o3)o2)cc1
inactive: [9] 94 % of control | [10] 91 % of control | [11] 91 % of control

COc1cc(/C=C/C(=O)c2c(N)n(C)c(=O)n(C)c2=O)cc(OC)c1OC
inactive: [1] 113 % of control | [2] 115 % of control | [3] 113 % of control

CC1(C)CC(=O)C(C(c2ccc3c(c2)OCO3)N2CCOCC2)C(=O)C1 (stereo not drawn)
inactive: [20] 117 % of control | [21] 109 % of control

CC(C)(C#N)NNC(N)=S
inactive: dose: 3.12 mg/kg/injection, schedule: Q01DX009 (ip), vehicle: saline 103 % of control | dose: 6.25 mg/kg/injection, schedule: Q01DX009 (ip), vehicle: saline 100 % of control | dose: 12.5 mg/kg/injection, schedule: Q01DX009 (ip), vehicle: saline 87 % of control and 93 % of control | dose: 50.0 mg/kg/injection, schedule: Q04DX003 (ip), vehicle: saline 96 % of control | dose: 100.0 mg/kg/injection, schedule: Q04DX003 (ip), vehicle: saline 96 % of control | dose: 200.0 mg/kg/injection, schedule: Q04DX003 (ip), vehicle: saline 94 % of control

CC1(C)COC(=O)C(C#N)=C1CBr
inactive: [4] 105 % of control | [5] 105 % of control | [6] 99 % of control and 116 % of control

CC(NC(=O)C(CO)NC(=O)CN)C(=O)O (stereo not drawn)
inactive: [13] 101 % of control | [14] 99 % of control | dose: 200.0 mg/kg/injection, schedule: Q01DX005 (ip), vehicle: saline 105 % of control

Cc1ccc(NC(=O)CCCC(=O)C(C#N)c2ccccc2C)cc1C (stereo not drawn)
inactive: [15] 113 % of control | [16] 103 % of control | [17] 102 % of control

NC(N)=NCCC(=O)c1cnc(N)[nH]1
inactive: dose: 8.75 mg/kg/injection, schedule: Q01DX005 (ip), vehicle: Klucel (hydroxypropylcellulose) (HPC) 106 % of control | dose: 17.5 mg/kg/injection, schedule: Q01DX005 (ip), vehicle: Klucel (hydroxypropylcellulose) (HPC) 107 % of control | dose: 35.0 mg/kg/injection, schedule: Q01DX005 (ip), vehicle: Klucel (hydroxypropylcellulose) (HPC) 100 % of control

Nc1[nH]c(=S)[nH]c(=O)c1NS(=O)(=O)c1ccccc1
inactive: dose: 30.0 mg/kg/injection, schedule: Q01DX005 (ip), vehicle: Klucel (hydroxypropylcellulose) (HPC) 104 % of control and 106 % of control | [21] 98 % of control and 97 % of control | [22] 98 % of control and 108 % of control

Cc1ccc(S(=O)(=O)NCCN(CCNS(=O)(=O)c2ccc(C)cc2)S(=O)(=O)c2ccc(C)cc2)cc1
inactive: dose: 100.0 mg/kg/injection, schedule: Q01DX001 (ip), vehicle: saline with Tween-80 86 % of control | dose: 200.0 mg/kg/injection, schedule: Q01DX001 (ip), vehicle: saline with Tween-80 86 % of control | dose: 400.0 mg/kg/injection, schedule: Q01DX001 (ip), vehicle: saline with Tween-80 88 % of control
